Values of other authors as cited in patent US20160243146A1, “LEVIA : A New Injectable Parasiticidal Veterinary Formulation of Levamisole HCl and Ivermectin Solution” (priority 2015, published 2016).

How the values were obtained:
[1] = dissolved in propylene glycol solvent

## Ivermectin
Room temperature
  solubility in water: about 0.005 mg per ml
water
  stability in water: unstable in water
[1]
  period of release into the blood: up to 14 days
